Assay results reported in patent US6700013B2, “Tricyclic fused heterocycle compounds, process for preparing the same and use thereof” (Nippon Suisan Kaisha, Ltd., priority 1999, dated 2004).

What was measured:
[1] = tested on: actively sensitized guinea pigs; test: Antigen induced airway hypersensitivity, airway reactivity to acetylcholine (PC100ACh); type: in vivo, guinea pig; settings: orally 10 mg/kg 16 hours and 2 hours before the OVA challenge; 22 to 26 hours after challenge
Description: Bronchial asthma is a disease characterized by bronchial contraction, airway hypersensitivity and infiltration of inflammatory cells into the airway. Airway hypersensitivity is a condition in which the airway sensitively produces a contraction response to various slight stimuli. Particularly, airway hypersensitivity is considered to be a common feature among patients suffering from allergic bronchial asthma. This experimental system in which actively sensitized guinea pigs are used is useful as a airway hypersensitivity model. […]
The specific airway resistance (sRaw) of wake guinea pigs was measured by the double flow plethysmography with the use of airway resistance measuring equipment (“Pulmos-1”, M.I.P.S., Japan).
[…], from twenty-two to twenty-six hours after the antigen challenge, the guinea pigs were placed in an animal chamber and allowed to inhale a physiological saline and acetylcholine (hereinafter referred to as “ACh”) solutions of 0.0625, 0.125, 0.25, 0.5, 1 and 2 mg/mL , respectively, in the order named, each for one minute until sRaw came to the value at least twice the baseline sRaw (sRaw after the inhalation of the physiological saline). The ACh concentration (hereinafter referred to as “PC100ACh”) necessary for 100% increase in the baseline sRaw was calculated from the concentration of ACh and sRaw-resistance curve. […]

[2] = tested on: actively sensitized guinea pigs; test: Number of inflammatory cells in bronchoalveolar lavage fluid after antigen challenge; type: in vivo, guinea pig; settings: orally 10 mg/kg one hour before OVA challenge
Method: It is reported [Pepys, J. and Hutchcroft, B. J., Bronchial provocation tests in etiologic diagnosis and Analysis of asthma, Am. Rev. Respir. Dis., 112, 829-859 (1975)] that when asthmatic patients are allowed to inhale an antigen, immediate asthmatic response (hereinafter referred to as “IAR”) whose peak is 15 to 30 minutes after inhalation is provoked and recovery from this response is within two hours; however, in 60% of the asthmatic patients late asthmatic response (hereinafter referred to as “LAR”) appears 4 to 12 hours after the inhalation of the antigen. […] On the other hand, it is known that when the guinea pigs actively sensitized with an antigen are allowed to inhale the antigen again, biphasic airway responses are caused. Accordingly, as the animal model line of IAR and LAR which are recognized in the above described asthmatic patients, the asthmatic model using guinea pigs is widely used in the evaluation of drugs for asthma and the like. Furthermore, it is known that in the IAR and LAR model of guinea pigs, when actively sensitized guinea pigs are exposed to an antigen, infiltration of inflammatory cells into the airway occurs together with the biphasic airway contraction to cause various inflammatory disorders to airway tissues thereby. Therefore, the number of inflammatory cells in the bronchoalveolar lavage fluid is widely used as the index for the infiltration of inflammatory cells into the airway. Each of the above described actions in the IAR and LAR model of guinea pigs was examined with the compounds of the present invention.
Guinea pigs were allowed to inhale a 1% ovalbumin (“OVA”, sigma-Aldrich Co., U.S.A.) physiological saline for 10 minutes daily continuously for 8 days using of an ultrasonic nebulizer (“NE-U12”, Omron, Japan).
One week after the final sensitization, the guinea pigs were allowed to inhale a 2% “OVA” physiological saline for 5 minutes using of the nebulizer. Twenty-four hours and one hour before challenge, the guinea pigs were dosed with metyrapone (10 mg/kg, Sigma-Aldrich Co., U.S.A.) intravenously, and dosed with pyrilamine (10 mg/kg, Sigma-Aldrich Co., U.S.A.) intraperitoneally 30 minutes before challenge.
Each of the test substances (Compounds of Examples 1 and 4) was formed into a suspension with a 0.5% carboxymethyl cellulose sodium salt (hereinafter referred to as “CMC-Na”) solution at a concentration of 2 mg/mL. One hour before challenge, the guinea pigs were orally dosed with the suspension of the test substance with such a dose so as to be 10 mg/kg. For the control group the medium (a 0.5% CMC-Na solution) was used.
Twenty-three to twenty-four hours after the antigen challenge, the abdominal aorta of the guinea pigs was cut under intraperitoneal anesthesia with “Nembutal” (50 mg/kg) to remove blood and the chest was opened. A tube was inserted in the bronchus and fixed thereto and through this tube, 5 mL (37° C.) of a physiological saline was injected and sucked therethrough; this procedure was repeated twice (10 mL in total) and the recovered fluid was regarded as the bronchoalveolar lavage fluid (hereinafter referred to as “BALF”). BALF was centrifuged at 1,100 rmp at 4° C. for 10 minutes to obtain a precipitate (a pellet). This pellet was suspended in 1 mL of a physiological saline and a Turkliquid was added thereto and the number of leukocytes per μL was counted with a leukocyte counter plate. Centrifugation was repeated under the above described conditions and rabbit serum was added to the obtained pellet to prepare a smear preparation. After drying, the preparation was subjected to the May Grunwald-Giemsa stain. The number of leukocytes was counted by a microscope and the ratio to the total number of cells of neutrophils, eosinophils, macrophages and lymphocytes was obtained and the number of cells per μL was calculated on the basis of this ratio.
The obtained test results were shown by mean values and standard deviations and the student's t-test was carried out. […]

[3] = tested on: pig tracheal smooth muscles; test: Dilating action on contraction of tracheal smooth muscles (high K+ contraction, Magnus tube); settings: Sus scrofa, 2 h; K+ contraction (72.7 mM); test substance final concentration 10 μM; two hours after addition; tension before addition = 100%; read-out: Relative Contraction Force (%)
Description: With the use of pig tracheal muscles, the action of the compounds of the present invention on contraction of tracheal muscles has been investigated. The method refers to “Smooth Muscle Manual” (published by Bun'eido Publishing Co.), pp. 125-137. The trachea cartilage mucous membrane and submucous tissue of a pig trachea were removed to prepare a specimen of tracheal smooth muscles having a major diameter of about 10 mm and a minor diameter of about 1.5 mm. This specimen was suspended in a Magnus tube which was aerated with a mixed gas of 95% of oxygen and 5% of carbon dioxide and contained nutrient solution at 37° C. and a load of 0.8 g was applied to this specimen, and after the tension of the specimen was stabilized, the nutrient solution was replaced with a high concentration K^+ solution (72.7 mM) to provoke K^+ contraction. The procedure of replacing the solution in the Magnus tube with the nutrient solution to wash the solution and provoking K^+ contraction with the high concentration K^+ solution was repeated again until the contraction force became constant. When the tension of the K^+ contraction became constant, each of the compounds described in Table 19 (the structural formula of the Comparative Example being described in the right side of the compound of the above described Example 180) was added to the high concentration K^+ solution as the test substance to measure the change in tension. The test substance was dissolved in dimethyl sulfoxide at a predetermined concentration and added to the high concentration K^+ solution in such a manner that the final concentration came to 10 μM. The trachea cartilage mucous membrane and submucous tissue of a pig trachea were removed to prepare a specimen of tracheal smooth muscles having a major diameter of about 10 mm and a minor diameter of about 1.5 mm. This specimen was suspended in a Magnus tube which was aerated with a mixed gas of 95% of oxygen and 5% of carbon dioxide and contained nutrient solution at 37° C. and a load of 0.8 g was applied to this specimen, and after the tension of the specimen was stabilized, the nutrient solution was replaced with a high concentration K+ solution (72.7 mM) to provoke K+ contraction. The procedure of replacing the solution in the Magnus tube with the nutrient solution to wash the solution and provoking K+ contraction with the high concentration K+ solution was repeated again until the contraction force became constant. When the tension of the K+ contraction became constant, each of the compounds described in Table 19 (the structural formula of the Comparative Example being described in the right side of the compound of the above described Example 180) was added to the high concentration K+ solution as the test substance to measure the change in tension. The test substance was dissolved in dimethyl sulfoxide at a predetermined concentration and added to the high concentration K+ solution in such a manner that the final concentration came to […]. Further, the final concentration of dimethyl sulfoxide added was made 0.3% or less. The change in tension was led to a strain pressure amplifier (“AP-621G3”, manufactured by Nippon Koden Kogyo) through a FD pickup transducer (“TB-611T”, manufactured by Nippon Koden Kogyo) and recorded on a recorder (“R-64V”, manufactured by Rika Electric). When the tension before replacement with the high concentration K+ solution was regarded as 0% and the last tension which was generated by the high concentration K+ solution before the addition of a test substance was regarded as 100%, the contraction force of the tracheal smooth muscle two hours after addition of a test substance was shown as relative percentage. […]

[4] = tested on: actively sensitized guinea pigs; test: Inhibition of immediate (IAR) and late (LAR) asthmatic response, specific airway resistance (sRaw); type: in vivo, guinea pig; settings: orally 10 mg/kg one hour before OVA challenge
Method: It is reported [Pepys, J. and Hutchcroft, B. J., Bronchial provocation tests in etiologic diagnosis and Analysis of asthma, Am. Rev. Respir. Dis., 112, 829-859 (1975)] that when asthmatic patients are allowed to inhale an antigen, immediate asthmatic response (hereinafter referred to as “IAR”) whose peak is 15 to 30 minutes after inhalation is provoked and recovery from this response is within two hours; however, in 60% of the asthmatic patients late asthmatic response (hereinafter referred to as “LAR”) appears 4 to 12 hours after the inhalation of the antigen. […] On the other hand, it is known that when the guinea pigs actively sensitized with an antigen are allowed to inhale the antigen again, biphasic airway responses are caused. Accordingly, as the animal model line of IAR and LAR which are recognized in the above described asthmatic patients, the asthmatic model using guinea pigs is widely used in the evaluation of drugs for asthma and the like. […]
The specific airway resistance (hereinafter referred to as “sRaw”) was measured, 1 minute, 10 minutes and 30 minutes after challenge and furthermore, 1 hour, 2 hours, 3 hours, 4 hours, 5 hours, 6 hours, 7 hours, 8 hours and 24 hours, each time for the duration of 1 minute with the use of airway resistance measuring equipment (“Pulmos-1”, M.I.P.S., Japan). […]

Sprague-Dawley line rats = test: Toxicity study of two-week repeated-dose oral administration with rats; type: in vivo; settings: male, oral, 0, 125 and 500 mg/kg/day repeatedly for two weeks
Method: In order to study the toxicity by repeated-dose administration of compounds, the compounds were dosed orally to Sprague-Dawley line rats (three male rats per group) with 0, 125 and 500 mg/kg/day (a 0.5 w/v % CMC-Na solution) repeatedly for two weeks.

[5] = 24 hours after antigen challenge, average

SMILES | PC100ACh [1] | change in number of eosinophils compared to the control group [2] | change in number of lymphocytes compared to the control group [2] | change in number of neutrophils compared to the control group [2] | change in total number of cells compared to the control group [2] | number of cells of eosinophils in bronchoalveolar lavage fluid [2, 5] | number of cells of lymphocytes in bronchoalveolar lavage fluid [2, 5] | number of cells of macrophages in bronchoalveolar lavage fluid [2, 5] | number of cells of neutrophils in bronchoalveolar lavage fluid [2, 5] | total number of cells in bronchoalveolar lavage fluid [2, 5] | activity at 10 µM [3] | IAR (% change in sRaw) inhibited by, compared to the control group [4] | LAR (AUC) inhibited by, compared to the control group ([4]; AUC from 4 hours to 8 hours) | Results (toxicity findings) (Sprague-Dawley line rats)
C[C@@H]1C[C@H]2[C@@H]3CCC4=CC(=O)C=C[C@]4(C)[C@@]3(F)[C@@H](O)C[C@]2(C)[C@@]1(O)C(=O)CO [dexamethasone, Dexamethasone] | 1.14 mg/mL | – | – | – | – | – | – | – | – | – | – | – | – | –
CSc1ccc2c(c1)CC(=O)c1c(O)cc(O)cc1S2 [Example 1, 2-Methylthio-7,9-dihydroxy-10,11-dihydrodibenzo[b,f]thiepin-10-one] | – | tendency | tendency | tendency | significant decrease | 810 µL⁻¹ | 21 µL⁻¹ | 1,872 /μL | 1,072 /μL | 3,775 /μL | 0% | 70% | 77% | No abnormalities were recognized
